Laboratory results from PubChem BioAssay AID1963844 (Molecular Pharmacology Branch, DTP, NCI, 2024).

System: 422866-222-R5-J1-PDC complex spheroid viability
Assay: Anticancer human tumor 422866-222-R5-J1-PDC patient-derived pancreatic adenocarcinoma cell line growth inhibition [POLQ]
Conditions: for IC50: curve of first compound; for viability, T/C: stronger effect = lower value
Method in brief: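 Patient-derived tumour cells were co-cultured with HUVEC and mesenchymal stem cells as multicellular spheroids at 37 °C. They were treated with POLQ inhibitors (novobiocin, ART-558, RP6685) alone or combined with other agents. Top concentrations were at or near clinical Cmax (otherwise 10 microM; SN-38 at 1 microM), decreasing in half-log steps.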

[1] = second compound 0.0316 µM, first compound 0.0316 µM
[2] = second compound 0.0316 µM, first compound 0.1 µM
[3] = second compound 0.0316 µM, first compound 0.316 µM
[4] = second compound 0.0316 µM, first compound 1 µM
[5] = second compound 0.0316 µM, first compound 3.16 µM
[6] = second compound 0.0316 µM, first compound 10 µM
[7] = second compound 0.1 µM, first compound 0.0316 µM
[8] = second compound 0.1 µM, first compound 0.1 µM
[9] = second compound 0.1 µM, first compound 0.316 µM
[10] = second compound 0.1 µM, first compound 1 µM
[11] = second compound 0.1 µM, first compound 3.16 µM
[12] = second compound 0.1 µM, first compound 10 µM
[13] = second compound 0.316 µM, first compound 0.0316 µM
[14] = second compound 0.316 µM, first compound 0.1 µM
[15] = second compound 0.316 µM, first compound 0.316 µM
[16] = second compound 0.316 µM, first compound 1 µM
[17] = second compound 0.316 µM, first compound 3.16 µM
[18] = second compound 0.316 µM, first compound 10 µM
[19] = second compound 1 µM, first compound 0.0316 µM
[20] = second compound 1 µM, first compound 0.1 µM
[21] = second compound 1 µM, first compound 0.316 µM
[22] = second compound 1 µM, first compound 1 µM
[23] = second compound 1 µM, first compound 3.16 µM
[24] = second compound 1 µM, first compound 10 µM
[25] = second compound 3.16 µM, first compound 0.0316 µM
[26] = second compound 3.16 µM, first compound 0.1 µM
[27] = second compound 3.16 µM, first compound 0.316 µM
[28] = second compound 3.16 µM, first compound 1 µM
[29] = second compound 3.16 µM, first compound 3.16 µM
[30] = second compound 3.16 µM, first compound 10 µM
[31] = second compound 10 µM, first compound 0.0316 µM
[32] = second compound 10 µM, first compound 0.1 µM
[33] = second compound 10 µM, first compound 0.316 µM
[34] = second compound 10 µM, first compound 1 µM
[35] = second compound 10 µM, first compound 3.16 µM
[36] = second compound 10 µM, first compound 10 µM
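Also: spheroids exposed to compounds for one week before readout.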
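For viability, T/C in this document: percent of DMSO vehicle wells luminescence so 100% = untreated viability.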

## CC(C)n1c(=O)n(C)c2cnc3cc(F)c(-c4ccc(OCCCN5CCCCC5)nc4)cc3c21 + Cc1cccc(N(C)C(=O)C2C(O)CCN2c2nc(C)cc(C(F)(F)F)c2C#N)c1
Second compound 0.0316 µM
  IC50: > 10 µM
Second compound 0.1 µM
  IC50: > 10 µM
Second compound 0.316 µM
  IC50: > 10 µM
Second compound 1 µM
  IC50: > 10 µM
Second compound 3.16 µM
  IC50: > 10 µM
Second compound 10 µM
  IC50: > 10 µM
[1]
  viability, T/C: 105%
[2]
  viability, T/C: 101%
[3]
  viability, T/C: 105%
[4]
  viability, T/C: 124%
[5]
  viability, T/C: 106%
[6]
  viability, T/C: 64.9%
[7]
  viability, T/C: 91.6%
[8]
  viability, T/C: 108%
[9]
  viability, T/C: 106%
[10]
  viability, T/C: 115%
[11]
  viability, T/C: 96.3%
[12]
  viability, T/C: 60.4%
[13]
  viability, T/C: 117%
[14]
  viability, T/C: 101%
[15]
  viability, T/C: 104%
[16]
  viability, T/C: 114%
[17]
  viability, T/C: 79.5%
[18]
  viability, T/C: 67%
[19]
  viability, T/C: 100%
[20]
  viability, T/C: 112%
[21]
  viability, T/C: 96.2%
[22]
  viability, T/C: 111%
[23]
  viability, T/C: 98%
[24]
  viability, T/C: 59.5%
[25]
  viability, T/C: 115%
[26]
  viability, T/C: 115%
[27]
  viability, T/C: 96.9%
[28]
  viability, T/C: 118%
[29]
  viability, T/C: 79.9%
[30]
  viability, T/C: 66.9%
[31]
  viability, T/C: 115%
[32]
  viability, T/C: 90.5%
[33]
  viability, T/C: 94.5%
[34]
  viability, T/C: 90.7%
[35]
  viability, T/C: 80.5%
[36]
  viability, T/C: 60.3%

## CC1COCCN1c1cc(-c2ccnn2C)c2ccnc(-c3ccn[nH]3)c2n1 (stereo not drawn) + Cc1cccc(N(C)C(=O)C2C(O)CCN2c2nc(C)cc(C(F)(F)F)c2C#N)c1
Second compound 0.0316 µM
  IC50: 0.0316 µM
Second compound 0.1 µM
  IC50: > 10 µM
Second compound 0.316 µM
  IC50: > 10 µM
Second compound 1 µM
  IC50: > 10 µM
Second compound 3.16 µM
  IC50: 0.0316 µM
Second compound 10 µM
  IC50: 0.0316 µM
[1]
  viability, T/C: 82.3%
[2]
  viability, T/C: 55.7%
[3]
  viability, T/C: 49.3%
[4]
  viability, T/C: 37.8%
[5]
  viability, T/C: 72.3%
[6]
  viability, T/C: 83.1%
[7]
  viability, T/C: 87%
[8]
  viability, T/C: 55.3%
[9]
  viability, T/C: 49.1%
[10]
  viability, T/C: 44.5%
[11]
  viability, T/C: 65.4%
[12]
  viability, T/C: 73%
[13]
  viability, T/C: 91.8%
[14]
  viability, T/C: 59.6%
[15]
  viability, T/C: 43.9%
[16]
  viability, T/C: 38.6%
[17]
  viability, T/C: 62.4%
[18]
  viability, T/C: 79.8%
[19]
  viability, T/C: 77.5%
[20]
  viability, T/C: 73.6%
[21]
  viability, T/C: 34%
[22]
  viability, T/C: 42.5%
[23]
  viability, T/C: 73.7%
[24]
  viability, T/C: 73.7%
[25]
  viability, T/C: 75.7%
[26]
  viability, T/C: 55.8%
[27]
  viability, T/C: 49.5%
[28]
  viability, T/C: 43.7%
[29]
  viability, T/C: 74.3%
[30]
  viability, T/C: 85%
[31]
  viability, T/C: 74.3%
[32]
  viability, T/C: 58.2%
[33]
  viability, T/C: 46.7%
[34]
  viability, T/C: 36.5%
[35]
  viability, T/C: 70.3%
[36]
  viability, T/C: 94.8%

## CCc1cc2c(N3CCc4c(cc(Cn5ccnc5)cc4-c4cn(C)nc4C(F)(F)F)C3=O)cc(C)nc2c(OC)n1 + Cc1cccc(N(C)C(=O)C2C(O)CCN2c2nc(C)cc(C(F)(F)F)c2C#N)c1
Second compound 0.0316 µM
  IC50: > 10 µM
Second compound 0.1 µM
  IC50: > 10 µM
Second compound 0.316 µM
  IC50: > 10 µM
Second compound 1 µM
  IC50: > 10 µM
Second compound 3.16 µM
  IC50: > 10 µM
Second compound 10 µM
  IC50: > 10 µM
[1]
  viability, T/C: 78.4%
[2]
  viability, T/C: 73.7%
[3]
  viability, T/C: 93.1%
[4]
  viability, T/C: 99.6%
[5]
  viability, T/C: 104%
[6]
  viability, T/C: 98%
[7]
  viability, T/C: 84.6%
[8]
  viability, T/C: 83.5%
[9]
  viability, T/C: 92.2%
[10]
  viability, T/C: 88.7%
[11]
  viability, T/C: 101%
[12]
  viability, T/C: 119%
[13]
  viability, T/C: 91.8%
[14]
  viability, T/C: 88.7%
[15]
  viability, T/C: 81.2%
[16]
  viability, T/C: 94.9%
[17]
  viability, T/C: 104%
[18]
  viability, T/C: 94.4%
[19]
  viability, T/C: 84.5%
[20]
  viability, T/C: 82.7%
[21]
  viability, T/C: 86.6%
[22]
  viability, T/C: 82.8%
[23]
  viability, T/C: 93.8%
[24]
  viability, T/C: 93.5%
[25]
  viability, T/C: 86.3%
[26]
  viability, T/C: 85.8%
[27]
  viability, T/C: 92.4%
[28]
  viability, T/C: 91.6%
[29]
  viability, T/C: 99.8%
[30]
  viability, T/C: 90.6%
[31]
  viability, T/C: 88.9%
[32]
  viability, T/C: 88.5%
[33]
  viability, T/C: 93.9%
[34]
  viability, T/C: 78.2%
[35]
  viability, T/C: 95.8%
[36]
  viability, T/C: 94.8%

## CCc1cc2c(N3CCc4c(cc(Cn5ccnc5)cc4-c4cn(C)nc4C(F)(F)F)C3=O)ccnc2c(OC)n1 + Cc1cccc(N(C)C(=O)C2C(O)CCN2c2nc(C)cc(C(F)(F)F)c2C#N)c1
Second compound 0.0316 µM
  IC50: > 10 µM
Second compound 0.1 µM
  IC50: > 10 µM
Second compound 0.316 µM
  IC50: > 10 µM
Second compound 1 µM
  IC50: > 10 µM
Second compound 3.16 µM
  IC50: > 10 µM
Second compound 10 µM
  IC50: > 10 µM
[1]
  viability, T/C: 96.1%
[2]
  viability, T/C: 99.6%
[3]
  viability, T/C: 93.3%
[4]
  viability, T/C: 88.2%
[5]
  viability, T/C: 87.6%
[6]
  viability, T/C: 91.8%
[7]
  viability, T/C: 88.4%
[8]
  viability, T/C: 87.9%
[9]
  viability, T/C: 83.5%
[10]
  viability, T/C: 112%
[11]
  viability, T/C: 91.4%
[12]
  viability, T/C: 99.2%
[13]
  viability, T/C: 90.7%
[14]
  viability, T/C: 84.7%
[15]
  viability, T/C: 91.7%
[16]
  viability, T/C: 96.3%
[17]
  viability, T/C: 96.2%
[18]
  viability, T/C: 112%
[19]
  viability, T/C: 73%
[20]
  viability, T/C: 80.2%
[21]
  viability, T/C: 86.1%
[22]
  viability, T/C: 98.2%
[23]
  viability, T/C: 97.7%
[24]
  viability, T/C: 114%
[25]
  viability, T/C: 87.4%
[26]
  viability, T/C: 87.6%
[27]
  viability, T/C: 89.5%
[28]
  viability, T/C: 85.4%
[29]
  viability, T/C: 108%
[30]
  viability, T/C: 115%
[31]
  viability, T/C: 100%
[32]
  viability, T/C: 94.2%
[33]
  viability, T/C: 90.7%
[34]
  viability, T/C: 93.5%
[35]
  viability, T/C: 107%
[36]
  viability, T/C: 105%
